Data: PMC7424068, “Design, Synthesis, and Biological Evaluation of Novel Thiazolidinone-Containing Quinoxaline-1,4-di-N-oxides as Antimycobacterial and Antifungal Agents” (Frontiers in Chemistry, 2020)
≈ marks a conversion by molar mass, not a printed value. Read-outs that look alike come from different tables or passages of the source.

Tests used:
C. tropicalis (ATCC7349) = assay: Antifungal activity, broth microdilution; format: cell-based; details: Candida tropicalis, C. tropicalis ATCC 7349, read-out: MIC
Method: (§1) All synthesized compounds and the positive control drugs amphotericin B and ketoconazole were tested for their in vitro antifungal activity. Antifungal activity was evaluated against four fungi, C. albicans (ATCC90028), C. tropicalis (ATCC7349), A. fumigatus (3.5352), and C. neoformans (2.3201), by broth microdilution according to the protocols from the NCCLS (Jiang et al., [2014]). Briefly, all tested compounds were dissolved in DMSO, and the solutions were diluted with fresh broth medium. All of the fungi-seeded broth (1 × 10^5 colony-forming units [CFU]/mL) were prepared in RPMI 1640 medium and added into the serially diluted drug solution. The tubes were incubated at 28°C, and the MIC (μg/mL) was recorded 72–96 h post-incubation. Broth control (without fungi), growth controls (with fungi and without drug), solvent (DMSO) control, and drug control for both test drugs and standard drugs were set under identical conditions. The minimum drug concentration in the tubes in which no apparent growth of the organism was observed represented the MIC of the compounds.

C. neoformans (2.3201) = assay: Antifungal activity, broth microdilution; format: cell-based; details: Cryptococcus neoformans; C. neoformans 2.3201; read-out: MIC
Method: as §1

A. fumigatus (3.5352) = assay: Antifungal activity, broth microdilution; format: cell-based; details: Aspergillus fumigatus; A. fumigatus 3.5352; read-out: MIC
Method: as §1

C. albicans (ATCC90028) = assay: Antifungal activity, broth microdilution; format: cell-based, Candida albicans; details: Candida albicans ATCC 90028, read-out: MIC
Method: as §1

Mtb H37Rv (ATCC27294) = assay: Antimycobacterial activity, microplate Alamar blue assay (MABA); format: cell-based, Mycobacterium tuberculosis; details: for antimycobacterial activity (in words): Mtb strain H37Rv
VERO cell line = assay: Cytotoxicity MTT assay; format: cell-based; details: Chlorocebus sabaeus, cytotoxicity in VERO cells, 72 h
Method: VERO cells (2 × 10^4 cells) were seeded into 96-well plates and incubated for 12 h. Serial dilutions of the compounds were mixed with the cell suspension in the plates. Both treated cells and blank and solvent controls were incubated for 72 h, followed by incubation with MTT (0.5 mg/mL) for another 4 h. The microplates were measured at 570 nm using a multimode reader (Infinite M200, Tecan). The percentage of viable cells was calculated as the mean with respect to the controls set to 100%. Triplicate wells were analyzed for each concentration. IC50 was defined as the concentration that reduced the viable cells by 50% compared to the untreated control cells. It was considered significant when the SI was more than 10.

[1] = Mycobacterium tuberculosis, Mtb H37Rv, MABA assay, read-out: MIC
[2] = Mycobacterium tuberculosis, Mtb H37Rv, repeated in Table 5 for the 3D-QSAR models, read-out: MIC
[3] = Mycobacterium tuberculosis, experimental pMIC, Mtb H37Rv, Table 5, read-out: pMIC exp (converted)

| SMILES | MIC (C. tropicalis (ATCC7349)) [µg/mL] | MIC (C. neoformans (2.3201)) [µg/mL] | MIC (A. fumigatus (3.5352)) [µg/mL] | melting point [°C] | MIC (C. albicans (ATCC90028)) [µg/mL] | MIC (Mtb H37Rv (ATCC27294); [1]) [µg/mL] | MIC (Mtb H37Rv (ATCC27294); [2]) [µg/mL] | MIC (Mtb H37Rv (ATCC27294); [3]) [µM] | IC50 (VERO cell line) [µg/mL] | MIC (Mtb H37Rv (ATCC27294); Mycobacterium tuberculosis) [µg/mL] | antimycobacterial activity (in words) (Mtb H37Rv (ATCC27294)) | MIC (Mtb H37Rv (ATCC27294); Mtb H37Rv, MABA assay) [µg/mL] |
| --- | --- | --- | --- | --- | --- | --- | --- | --- | --- | --- | --- | --- |
| O=C1CSC(c2c[n+]([O-])c3ccc(F)cc3[n+]2[O-])N1c1ccccc1 (stereo not shown) [2q, 7-F-2-(3′-phenyl-4′(5H)-thiazolidinone)-quinoxaline-1,4-di-N-oxide] | 4 (≈ 11.2 µM) | 16 (≈ 44.8 µM) | 16 (≈ 44.8 µM) | 249 to 252 | 8 (≈ 22.4 µM) | 6.25 | 6.25 | 17.5 | 126 (≈ 354 µM) | – | – | – |
| CO[C@H]1/C=C/O[C@@]2(C)Oc3c(C)c(O)c4c(O)c(c(/C=N/N5CCN(C)CC5)c(O)c4c3C2=O)NC(=O)/C(C)=C\C=C\[C@H](C)[C@H](O)[C@@H](C)[C@@H](O)[C@@H](C)[C@H](OC(C)=O)[C@@H]1C [RMP, Rifampicin, reference compound] | – | – | – | – | – | – | – | – | – | 0.125 | – | – |
| O=C1CSC(c2c[n+]([O-])c3ccccc3[n+]2[O-])N1c1ccccc1 (stereo not shown) [2a, 2-(3′-phenyl-4′(5H)-thiazolidinone)-quinoxaline-1,4-di-N-oxide] | 8 (≈ 23.6 µM) | 16 (≈ 47.1 µM) | 32 (≈ 94.3 µM) | 245 to 248 | 16 (≈ 47.1 µM) | 6.25 | 6.25 | 18.5 | 144 (≈ 423 µM) | – | good antimycobacterial activity | – |
| COc1ccc(N2C(=O)CSC2c2c[n+]([O-])c3ccc(OC)cc3[n+]2[O-])cc1 (stereo not shown) [2n, 7-OMe-2-(3′-P-methoxyphenyl-4′(5H)-thiazolidinone)-quinoxaline-1,4-di-N-oxide] | 64 (≈ 160 µM) | > 64 | > 64 | 258 to 260 | > 64 | 200 | 200 | 501 | – | – | – | – |
| Cc1ccc2c(c1)[n+]([O-])c(C1SCC(=O)N1c1ccc(Cl)cc1)c[n+]2[O-] (stereo not shown) [2k, 7-CH3-2-(3′-P-chlorophenyl-4′(5H)-thiazolidinone)-quinoxaline-1,4-di-N-oxide] | 16 (≈ 41.3 µM) | 32 (≈ 82.5 µM) | 32 (≈ 82.5 µM) | 244 to 248 | 32 (≈ 82.5 µM) | ≤ 3.13 | 3.13 | 8.09 | 102 (≈ 264 µM) | – | good antimycobacterial activity | – |
| COc1ccc(N2C(=O)CSC2c2c[n+]([O-])c3ccc(C)cc3[n+]2[O-])cc1 (stereo not shown) [2i, 7-CH3-2-(3′-P-methoxyphenyl-4′(5H)-thiazolidinone)-quinoxaline-1,4-di-N-oxide] | 32 (≈ 83.5 µM) | 16 (≈ 41.7 µM) | > 64 | 255 to 259 | 64 (≈ 167 µM) | 50 | 50 | 131 | – | – | – | – |
| O=C1CSC(c2c[n+]([O-])c3ccc(Cl)cc3[n+]2[O-])N1c1ccccc1 (stereo not shown) [2v, 7-Cl-2-(3′-phenyl-4′(5H)-thiazolidinone)-quinoxaline-1,4-di-N-oxide] | 8 (≈ 21.4 µM) | 8 (≈ 21.4 µM) | 4 (≈ 10.7 µM) | 248 to 250 | 8 (≈ 21.4 µM) | ≤ 3.13 | 3.13 | 8.39 | 119 (≈ 318 µM) | – | – | – |
| Cc1ccc(N2C(=O)CSC2c2c[n+]([O-])c3ccc(F)cc3[n+]2[O-])cc1 (stereo not shown) [2r, 7-F-2-(3′-P-methylphenyl-4′(5H)-thiazolidinone)-quinoxaline-1,4-di-N-oxide] | 8 (≈ 21.5 µM) | 16 (≈ 43.1 µM) | 8 (≈ 21.5 µM) | 249 to 251 | 8 (≈ 21.5 µM) | 12.5 | 12.5 | 33.7 | – | – | – | – |
| N=C1NC(=O)/C(=C/c2c[n+]([O-])c3ccccc3[n+]2[O-])S1 [V, 2-(2′-iminothiazolidin-4′-one)-quinoxaline-1,4-di-N-oxide] | – | – | – | – | – | > 50 | – | – | – | – | – | >50 |
| Cc1ccc2c(c1)[n+]([O-])c(C1SCC(=O)N1c1ccccc1)c[n+]2[O-] (stereo not shown) [2g, 7-CH3-2-(3′-phenyl-4′(5H)-thiazolidinone)-quinoxaline-1,4-di-N-oxide] | 16 (≈ 45.3 µM) | 32 (≈ 90.5 µM) | 32 (≈ 90.5 µM) | 255 to 257 | 32 (≈ 90.5 µM) | 12.5 | 12.5 | 35.4 | – | – | – | – |
| COc1ccc(N2C(=O)CSC2c2c[n+]([O-])c3ccccc3[n+]2[O-])cc1 (stereo not shown) [2c, 2-(3′-P-methoxyphenyl-4′(5H)-thiazolidinone)-quinoxaline-1,4-di-N-oxide] | 32 (≈ 86.6 µM) | 32 (≈ 86.6 µM) | > 64 | 255 to 257 | 64 (≈ 173 µM) | 12.5 | 12.5 | 33.9 | – | – | – | – |
| Cc1ccc(N2C(=O)CSC2c2c[n+]([O-])c3ccc(C)cc3[n+]2[O-])cc1 (stereo not shown) [2h, 7-CH3-2-(3′-P-methylphenyl-4′(5H)-thiazolidinone)-quinoxaline-1,4-di-N-oxide] | 8 (≈ 21.8 µM) | 32 (≈ 87.1 µM) | 64 (≈ 174 µM) | 257 to 259 | 32 (≈ 87.1 µM) | 25 | 25 | 68.1 | – | – | – | – |
| O=C1CSC(c2c[n+]([O-])c3ccccc3[n+]2[O-])N1 (stereo not shown) [VI, 2-(4'(5H)-thiazolone)-quinoxaline-1,4-di-N-oxide] | – | – | – | – | – | 6.25 | – | – | – | – | – | – |
| COc1ccc2c(c1)[n+]([O-])c(C1SCC(=O)N1c1ccc(F)cc1)c[n+]2[O-] (stereo not shown) [2o, 7-OMe-2-(3′-P-fluorophenyl-4′(5H)-thiazolidinone)-quinoxaline-1,4-di-N-oxide] | 64 (≈ 165 µM) | 32 (≈ 82.6 µM) | 64 (≈ 165 µM) | 255 to 257 | 64 (≈ 165 µM) | 50 | 50 | 129 | – | – | – | – |
| COc1ccc2c(c1)[n+]([O-])c(C1SCC(=O)N1c1ccc(C)cc1)c[n+]2[O-] (stereo not shown) [2m, 7-OMe-2-(3′-P-methylphenyl-4′(5H)-thiazolidinone)-quinoxaline-1,4-di-N-oxide] | 64 (≈ 167 µM) | > 64 | > 64 | 257 to 259 | > 64 | 100 | 100 | 261 | – | – | – | – |
| COc1ccc2c(c1)[n+]([O-])c(C1SCC(=O)N1c1ccc(Cl)cc1)c[n+]2[O-] (stereo not shown) [2p, 7-OMe-2-(3′-P-chlorophenyl-4′(5H)-thiazolidinone)-quinoxaline-1,4-di-N-oxide] | 64 (≈ 158 µM) | 32 (≈ 79.2 µM) | > 64 | 253 to 256 | 64 (≈ 158 µM) | 50 | 50 | 124 | – | – | – | – |
| Cc1ccc(N2C(=O)CSC2c2c[n+]([O-])c3ccccc3[n+]2[O-])cc1 (stereo not shown) [2b, 2-(3′-P-methylphenyl-4′(5H)-thiazolidinone)-quinoxaline-1,4-di-N-oxide] | 8 (≈ 22.6 µM) | 32 (≈ 90.5 µM) | 32 (≈ 90.5 µM) | 251 to 253 | 16 (≈ 45.3 µM) | 12.5 | 12.5 | 35.4 | – | – | – | – |
| COc1ccc(N2C(=O)CSC2c2c[n+]([O-])c3ccc(Cl)cc3[n+]2[O-])cc1 (stereo not shown) [2x, 7-Cl-2-(3′-P-methoxyphenyl-4′(5H)-thiazolidinone)-quinoxaline-1,4-di-N-oxide] | 8 (≈ 19.8 µM) | 8 (≈ 19.8 µM) | 8 (≈ 19.8 µM) | 252 to 254 | 8 (≈ 19.8 µM) | 12.5 | 12.5 | 31 | – | – | – | – |
| O=C1CSC(c2c[n+]([O-])c3ccccc3[n+]2[O-])N1C1CC1 (stereo not shown) [2f, 2-(3′-cyclopropyl-4′(5H)-thiazolidinone)-quinoxaline-1,4-di-N-oxide] | 16 (≈ 52.7 µM) | 64 (≈ 211 µM) | 64 (≈ 211 µM) | 249 to 252 | 32 (≈ 105 µM) | 25 | 25 | 82.4 | – | – | – | – |
| COc1ccc2c(c1)[n+]([O-])c(C1SCC(=O)N1c1ccccc1)c[n+]2[O-] (stereo not shown) [2l, 7-OMe-2-(3′-phenyl-4′(5H)-thiazolidinone)-quinoxaline-1,4-di-N-oxide] | 32 (≈ 86.6 µM) | > 64 | > 64 | 254 to 258 | 64 (≈ 173 µM) | 100 | 100 | 271 | – | – | – | – |
| COc1ccc(N2C(=O)CSC2c2c[n+]([O-])c3ccc(F)cc3[n+]2[O-])cc1 (stereo not shown) [2s, 7-F-2-(3′-P-methoxyphenyl-4′(5H)-thiazolidinone)-quinoxaline-1,4-di-N-oxide] | 8 (≈ 20.7 µM) | 8 (≈ 20.7 µM) | 8 (≈ 20.7 µM) | 251 to 253 | 8 (≈ 20.7 µM) | 25 | 25 | 64.6 | – | – | – | – |
